Settings: in water

NCCS(=O)(=O)O
Settings	solubility (mole fraction)
278.15 K	0.00667
283.15 K	0.00809
288.15 K	0.0101
293.15 K	0.0121
298.15 K	0.0141
303.15 K	0.0172
308.15 K	0.0202
313.15 K	0.0232
318.15 K	0.0264
323.15 K	0.0318
